Data reported in patent EP0452101B1, “Spiro bridged and unbridged heterocyclic compounds” (ISRAEL INSTITUTE FOR BIOLOGICAL RESEARCH, priority 1990, dated 1991).
Like-named read-outs stand apart in the source and are kept apart here.

Experiments:
[1] = tested on: rat cerebral cortex synaptosomes; assay: Synaptosomal 3H-ACh release, basal and K+-evoked
From the text: The effects of AF150 (and for comparison purposes, AF125, MeN-A-343 and oxotremorine) on basal- and K^+-evoked release of ^3H-ACh were studied on synaptosomes prepared from rat cerebral cortex using the methods described in detail by Pittel et al (J. Neurochem., 55: 665-672, 1990). […] On the other hand, the action of AF150 on presynaptic muscarinic receptors, causing an increase in K^+-evoked ACh release, can be considered either as an M2 antagonistic or an M1 agonistic effect. […] The existence of muscarinic autoreceptors that increase ACh release was manifested also in the PNS in smooth muscle preparation (Kilbinger and Nafziger, Naunyn Schmiedebergs Arch. Pharmacol. 328: 304-309, 1985).

[2] = target: T1, m3 subtype (SK-N-SH cells) (Homo sapiens, UniProt P20309); assay: PI hydrolysis in SK-N-SH neuroblastoma cells; format: cell-based
T1 construct: endogenous in cells; host or cells: SK-N-SH human neuroblastoma cells
T1 sequence (P20309 whole entry): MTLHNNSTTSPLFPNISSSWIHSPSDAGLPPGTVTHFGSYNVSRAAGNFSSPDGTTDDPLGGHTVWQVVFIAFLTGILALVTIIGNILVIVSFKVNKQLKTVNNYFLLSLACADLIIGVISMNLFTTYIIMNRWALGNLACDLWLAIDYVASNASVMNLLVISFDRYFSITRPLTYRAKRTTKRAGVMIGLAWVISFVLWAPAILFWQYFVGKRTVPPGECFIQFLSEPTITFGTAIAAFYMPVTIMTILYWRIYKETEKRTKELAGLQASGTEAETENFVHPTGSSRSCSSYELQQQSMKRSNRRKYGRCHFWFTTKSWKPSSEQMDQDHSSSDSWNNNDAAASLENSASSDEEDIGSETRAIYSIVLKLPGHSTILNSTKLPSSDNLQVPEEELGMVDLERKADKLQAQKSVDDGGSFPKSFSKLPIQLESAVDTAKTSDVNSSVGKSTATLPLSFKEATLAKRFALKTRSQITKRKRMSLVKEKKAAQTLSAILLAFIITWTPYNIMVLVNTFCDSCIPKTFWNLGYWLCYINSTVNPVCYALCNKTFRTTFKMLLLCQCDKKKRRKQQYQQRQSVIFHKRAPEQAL
Description: (§1) The new compounds AF150, AF151, AF150(S) and AF125 were assayed for their ability to stimulate PI in CHO cells transfected with m1 and m3 receptors, respectively (Buck and Fraser, loc cit), and in cultured human neuroblastoma cells, line SK-N-SH, which express mainly the m3 subtype, but not the m1 subtype (Pinkas-Kramarski et al, Neurosci. Lett. 188: 335-340, 1990; Luthin et al Mol. Pharmacol. 34: 327-333, 1988). These compounds were also assayed on cultured PC12 cells which express mainly m4 subtype receptors and are coupled to inhibition of AC activity (Pinkas-Kramarski et al, loc cit).
(§2) Stimulation of PI breakdown was assayed using the method described by Stein et al (EMBO J. 7: 3031-3035, 1988), and modulation of AC activity was assayed by the method of Stein et al, loc cit and Pinkas-Kramarski et al (FEBS Lett., 239: 174-178, 1988). […]

[3] = target: T2, m1 receptors (Rattus norvegicus, UniProt P08482); assay: PI hydrolysis in CHO cells transfected with m1 receptors; format: cell-based; conditions: for EC50: CHO m1, PI hydrolysis; for PI (phosphoinositides hydrolysis): tested at 1mM
T2 construct: expressed in transfected cells; host or cells: CHO cells
T2 sequence (P08482 1-460): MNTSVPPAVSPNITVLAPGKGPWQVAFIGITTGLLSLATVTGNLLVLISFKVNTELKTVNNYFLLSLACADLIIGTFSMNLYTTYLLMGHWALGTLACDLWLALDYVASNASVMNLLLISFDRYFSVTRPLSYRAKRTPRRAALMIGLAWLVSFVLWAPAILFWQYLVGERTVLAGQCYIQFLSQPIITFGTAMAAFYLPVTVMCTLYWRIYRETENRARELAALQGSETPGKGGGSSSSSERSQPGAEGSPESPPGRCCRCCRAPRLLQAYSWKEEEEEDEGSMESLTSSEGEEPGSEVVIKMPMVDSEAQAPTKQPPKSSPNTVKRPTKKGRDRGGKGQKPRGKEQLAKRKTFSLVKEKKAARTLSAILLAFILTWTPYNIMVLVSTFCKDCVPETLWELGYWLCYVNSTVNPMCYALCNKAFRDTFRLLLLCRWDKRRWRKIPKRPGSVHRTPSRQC

[4] = target: T3, M2 muscarinic receptors (Rattus norvegicus, UniProt P10980); assay: Displacement of 3H-QNB from rat cerebellum, 50 mM phosphate buffer; format: binding
T3 construct: displacing from rat brain homogenates, cerebellum or frontal cortex; from tissue; host or cells: rat cerebellum homogenates
T3 sequence (P10980 1-466): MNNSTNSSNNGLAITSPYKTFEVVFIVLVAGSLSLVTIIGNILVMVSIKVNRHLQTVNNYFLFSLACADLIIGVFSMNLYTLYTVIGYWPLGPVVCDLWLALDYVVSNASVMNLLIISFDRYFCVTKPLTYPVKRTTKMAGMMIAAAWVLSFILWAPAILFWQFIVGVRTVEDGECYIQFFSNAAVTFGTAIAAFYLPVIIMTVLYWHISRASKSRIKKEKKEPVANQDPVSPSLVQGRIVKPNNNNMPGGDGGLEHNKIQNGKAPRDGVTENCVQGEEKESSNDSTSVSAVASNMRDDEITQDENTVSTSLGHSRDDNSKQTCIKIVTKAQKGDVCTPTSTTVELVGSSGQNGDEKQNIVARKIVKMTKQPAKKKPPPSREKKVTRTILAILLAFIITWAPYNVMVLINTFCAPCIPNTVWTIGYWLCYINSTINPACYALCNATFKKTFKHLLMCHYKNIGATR

[5] = target: T4, M1 muscarinic receptor (Rattus norvegicus, UniProt P08482); assay: Displacement of 3H-PZ from cortical binding sites, Tris/Mn buffer, with and without GppNHp; set-up: from tissue; host or cells: rat cerebral cortex homogenates; conditions: for KL-G / KH-G: ratio of low and high affinities without GppNHp
T4 sequence (P08482 1-460): T2 sequence (P08482 1-460)
From the text: The binding of agonists to M1 muscarinic receptors and the effect of guanylyl imidophosphate (GppNHp). Agonists are known to be coupled with guanine nucleotide binding proteins (G proteins).
Non-hydrolyzable guanine nucleotides such as GppNHp dissociate the G protein from the receptor and decrease the affinity of the receptor for agonists but not for antagonists. […] Molec.
Under these conditions agonists of high efficacy ("full agonists") bind directly to the M1 receptor subtype with two affinities. […] The ratio of low and high affinities (KL/KH) of the M1 receptor may predict the relative efficacies of agonists to activate putative M1 receptor-mediated second messenger systems.
KH, KL, %H and %L are the apparent inhibition constants of the tested ligands for the high and low affinity sites, respectively. G is GppNHp (guanylyl imidodiphosphate), and was used in 0.1 mM concentration. Displacement of ^3H-PZ from cortical binding sites was performed in Tris/Mn buffer (pH 7.4) for one hour at 25°C; the buffer included 1 mM EDTA and 2mM Mn^++ ions. […] The binding data were analyzed using a GraphPAD program and were fitted to one or two components. Values are means from 1-3 experiments carried out in triplicates.

[6] = target: m3 receptors (Rattus norvegicus, UniProt P08483); assay: PI hydrolysis in CHO cells transfected with m3 receptors; format: cell-based; conditions: for effective concentration which induces the effect: CHO m3, PI hydrolysis, footnote b; for PI (phosphoinositides hydrolysis): CHO m3, tested at 1mM
Sequence of m3 receptors (P08483 whole entry): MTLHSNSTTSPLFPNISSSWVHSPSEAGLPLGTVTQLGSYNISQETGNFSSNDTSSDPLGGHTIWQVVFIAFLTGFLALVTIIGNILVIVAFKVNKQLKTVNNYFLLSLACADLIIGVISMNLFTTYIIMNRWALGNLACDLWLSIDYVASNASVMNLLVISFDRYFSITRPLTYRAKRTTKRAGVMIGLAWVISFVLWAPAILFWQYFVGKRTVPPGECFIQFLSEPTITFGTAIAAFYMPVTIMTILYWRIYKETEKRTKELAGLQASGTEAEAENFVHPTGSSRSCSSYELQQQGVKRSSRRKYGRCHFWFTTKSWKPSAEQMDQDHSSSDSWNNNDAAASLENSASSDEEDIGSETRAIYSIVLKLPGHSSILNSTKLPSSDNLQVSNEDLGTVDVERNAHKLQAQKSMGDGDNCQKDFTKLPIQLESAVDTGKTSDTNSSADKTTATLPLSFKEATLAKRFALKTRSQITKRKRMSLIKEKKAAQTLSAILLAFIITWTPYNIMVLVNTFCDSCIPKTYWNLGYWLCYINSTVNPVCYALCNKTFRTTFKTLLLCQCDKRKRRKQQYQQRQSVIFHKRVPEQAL
Description: as §1, §2

[7] = +G (0.1 mM GppNHp), read-out: KH
[8] = +G (0.1 mM GppNHp), read-out: KL
[9] = -G (without GppNHp), read-out: KH

Row | Structure (SMILES) | K+-evoked 3H-ACh release ([1]; 1.0 mM) | PI, % of carbachol effect ([2]; SK-N-SH m3) [%] | Ki [5, 7] [µM] | Ki [5, 8] [µM] | Ki [5, 9] [µM] | Ki ([5]; -G, read-out: KL) [µM] | effective concentration which induces the effect [6] | PI (phosphoinositides hydrolysis) [6] | EC50 [3] [µM] | PI (phosphoinositides hydrolysis) ([3]; CHO m1) | %L ([5]; +G (0.1 mM GppNHp)) [%] | % H ([5]; -G) [%] | %L ([5]; -G) [%] | KL-G / KH-G [5] | also measured
1 | CC1=NCC2(CN3CCC2CC3)O1 (racemic) [AF125, 2-Methyl-spiro(1,3 oxazoline-5,3')quinuclidine] | 78±9 (2) % | 20 | 9 | 12 | 9 | 12 |  |  |  |  |  |  |  |  | interference with the effect of carbachol [2]: 10-20%; stimulation of phosphoinositides hydrolysis relative to carbachol [2]: 20-25%; PI, % of carbachol effect ([3]; CHO m1): 14%; Ki ([4]; read-out: 3H-QNB-Binding KH2 (c), cerebellum, Table 5): 3.8 µM; Ki ([4]; read-out: 3H-QNB-Binding KH (c), cerebellum, Table 4): 3.8 µM
2 | CC1=NCC2(CCN(C)CC2)O1 [AF150, 2-Methyl-spiro(1,3-oxazoline-5,4')-1'-methylpiperidine] | 115±4 (6) p<0.01% | 40 |  | 21 | 0.11 | 11 | 10^b µM | + | 13 | +++ | 100 | 21 | 83 | 100 | Basal 3H-ACh release ([1]; 0.1 mM): 121%; K+-evoked 3H-ACh release ([1]; 0.1 mM): 110%; EC50 ([2]; SK-N-SH m3, PI hydrolysis): 3 µM; PI (phosphoinositides hydrolysis) ([2]; SK-N-SH m3, tested at 1mM): +; RATIOS d:c ([4]; KL2 : KH2 cerebellum (3H-QNB)): 17; % H ([4]; cerebellum, Table 4): 49%; %L ([4]; cerebellum, Table 4): 51%; Ki ([4]; cerebellum, Table 4, read-out: 3H-QNB-Binding KH (c)): 4.5 µM; Ki ([4]; cerebellum, Table 4, read-out: 3H-QNB-Binding KL (d)): 79 µM; % H2 ([4]; cerebellum, Table 5): 51%; % L2 ([4]; cerebellum, Table 5): 49%; Ki ([4]; cerebellum, Table 5, read-out: 3H-QNB-Binding KH2 (c)): 4.9 µM; Ki ([4]; cerebellum, Table 5, read-out: 3H-QNB-Binding KL2 (d)): 83 µM
3 | CC1=NC2(CCN(C)CC2)CO1 [AF151, 1-methylpiperidine-4-spiro-4'-(2'-methyl-1',3'-oxazoline)] |  |  | 4.6 | 59 | 3.7 | 4.8 | 10^b µM | + | 54 | +++ | 83 | 39 | 61 | 13 | % H ([5]; +G (0.1 mM GppNHp)): 17%
